Test results from patent US20050031537A1, “Multifunctional COX-2 inhibitors” (priority 2002, published 2005).

How the values were obtained:
[1] = system: PPRE luciferase; assay: PPRE luciferase activation, transient transfection reporter assay (test (a)); format: cell-based, human; settings: positive in 184B5, 184B5/HER, HCA7, HCT116, SKBR3 and BT474 cells; 24 h treatment
From the text: We turn now to criterion (a), that is activation of PPRE luciferase by at least 100%. PPRE-luciferase refers to a DNA construct containing the peroxisome proliferator activated receptor (PPAR) binding element joined to luciferase. Cells are transfected with PPRE-luciferase DNA. Ligands of PPAR induce luciferase activity. The ability of a test compound to stimulate PPRE-luciferase signifies that the test compound activates PPAR-mediated gene transcription. PPRE means peroxisome proliferator response element and the method by which PPRE-luciferase is constructed is described in Schoonjans, K., et al, J. Biol. Chem. 270, No. 33, 19269-19276 (Aug. 18, 1995). Use of PPRE-luciferase in a transient transfection to measure increase in promoter activity is disclosed in Subbaramaiah, K. et al, J. Biol. Chem. 270, No. 15, 12440-12448 (Apr. 13, […]).
For each well, 1.8 μg of PPRE3-tk-luciferase construct plasmid DNA (described in Forman, B. M., et al, Cell 83, 803 (1995)) plus 0.2 μg of pSV-β-galactosidase were introduced into cells using 8 μg of LipofectAMINE as per the manufacturer's instructions (Invitrogen, CA). After 7 h of incubation, the medium was replaced with basal medium. After transfection, cells were treated with test compound for 24 h. Reporter activities which include luciferase and β-galactosidase were measured in cellular extract 24 h later. Six wells were used for each of the conditions. Luciferase activity represents data that have been normalized with β-galactosidase.
The luciferase assay was performed as per the BD Pharmingen assay reagents. The Enhanced Luciferase Assay Kit provides a firefly luciferase substrate formulation (Substrates A and B) and cell lysis buffer intended for use in measuring luciferase expressed by transfected cells. Media from cell culture plates was removed and rinsed twice with phosphate buffered saline. Enough 1X cell lysis buffer was added to cover cells and incubated at room temperature for 15-20 min. Cells were dislodged by scraping and transferred to microcentrifuge tubes. […] 20-100 μl cell extract was placed into an assay cuvette. One automatic injector type luminometer is used for assay. Manually 100 μl of Substrate A was added to the assay cuvette and automatically 100 μl of Substrate B was injected. Measurements were performed using a luminometer, for a measurement time of 10 seconds.
The β-galactosidase assay was performed as follows:
50 μl of cell lysate from above was incubated with 50 μl of o-nitrophenyl-β-D-galactoside (ONPG; 4 mg/mL) in Z buffer, (Na2HPO4.7H2O (0.06M), NaH2PO4.H2O (0.04M), 1M KCl (0.01M), 1M MgSO4 (0.001M), β-mercaptoethanol (BME) (0.05M) pH 7.0). The reaction was stopped after sufficient yellow color has developed. The yellow color developed is measured at A420 […].

[2] = system: HPV16 oncoproteins E6 and E7; assay: Western and Northern blotting for HPV16 oncoproteins E6 and E7 (test (d)); format: cell-based, human papillomavirus; settings: positive in CaSki and SiHa cells
Protocol: We turn now to the criterion (d), that is at least 50% downregulation of expression of HPV16 oncoproteins E6 and E7.
Protein E6 and E7 which are expressed by HPV16 are believed to play a major role in carcinogenesis.
Western blotting and Northern blotting techniques were used to evaluate the expression of HPV E6 and E7 proteins. The cell lines used for the study were CaSKi and SiHa. The cells were treated with the test compound and cell lysate was obtained as described above and subjected to Western blotting analysis. The Western blotting analysis was performed as described above except anti-HPV 16 E7 antibody was used to probe the blot. The antibody was obtained from Santa Cruz Biotechnology, Inc. CA. For Northern blotting, total cellular RNA was isolated from cell monolayers using an RNA isolation kit from QIAGEN Inc. after treatment with the test compound. 10 μg of total cellular RNA per lane were electrophoresed in a formaldehyde-containing 1.2% agarose gel and transferred to nylon-supported membranes. After baking, membranes were prehybridized overnight in a solution containing 50% formamide, 5×sodium chloride-sodium phosphate-EDTA buffer (SSPE), 5×Denhardt's solution, 0.1% SDS and 100 μg/ml single-stranded salmon sperm DNA and then hybridized for 12 h at 42° C. with radiolabeled cDNA probes for human HPV16 E6 or E7 cDNAs and 18S rRNA. E6 and E7 (as described in Woodworth, C. D., Cancer Res. 16, 4397-4402 (2000)) and 18S rRNA probes were labeled with [^32P]-CTP by random priming. After hybridization, membranes were washed twice for 20 min at room temperature in 2×SSPE-0.1% SDS, twice for 20 min in the same solution at 55° C., and twice for 20 min in 0.1×SSPE-0.1% SDS at 55° C. Washed membranes were then subjected to autoradiography.

[3] = system: cyclin D1; assay: Western blotting for expression of cyclin D1 (test (c)); format: cell-based, human; settings: positive in 184B5, 184B5/HER cells; 24 h; Western blot
Protocol: Cyclin D1 is a protein that is important in regulating cell proliferation and is described in Ortega, S., et al, Biochimica et Biophysica Acta 1602, 73-87, (2002), the whole of which is incorporated by reference. […] Effects on expression of cyclin D1 was investigated in 184B5, 184B5/HER, HCA7, HCT116, SKBR3 and BT474 cells. The expression was assessed in cells after treatment with test compound or vehicle using 5×10^4 cells for 24 hours. Western blotting technique was used as follows to assess the expression levels of cyclin D1 in cells treated with the test compound and compared to levels in cells treated with vehicle alone. Cell lysates were prepared by treating cells with lysis buffer as described above. […] The resolved proteins were transferred onto nitrocellulose sheets. The nitrocellulose membrane was then incubated with anti-cyclin D1 antiserum. Secondary antibody to IgG conjugated to horseradish peroxidase was used. The various antisera were purchased from Santa Cruz Biotechnology, Inc., CA. The blots were probed with the Renaissance Western blot detection system according to the manufacturer's instructions (PerkinElmer Life Sciences, Boston, Mass.).

[4] = system: HER-2/neu; assay: Western blotting for expression of HER-2/neu (test (b)); format: cell-based, human; settings: positive in 184B5/HER, BT474 and SKBR3 cells; 24 h; Western blot
From the text: We turn now to the criterion (b), that is at least 50% decrease in level of or 50% downregulation of expression of Class I family of receptors tyrosine kinase. The Class I family of receptors tyrosine kinase is described in Reese, M. D., et al Stem Cells 15, pages 1-8 (1997), the whole of which in incorporated herein by reference. Members of the family include HER-2/neu, HER-3, HER-4 and epidermal growth factor receptor (EGFR) and are single-chain membrane spanning proteins which have significant homology to one another including about 80% amino acid identity in the tyrosine kinase domain.
HER-2/neu (erbB-2) gene product is a 185-kDA transmembrane receptor tyrosine kinase that is described in some detail in said Reese et al publication and overexpression thereof has been associated with tumor growth in several kinds of cancer.
To evaluate the expression of Class I family of receptors tyrosine kinase (EGFR, HER-2/neu), Western blotting can be performed. Antibodies for EGFR and HER-2/neu can be obtained from Santa Cruz Biotechnology, Inc.
Expression of EGFR (performed in 184B5, 184B5/HER, 1483, LNCaP, HeLa and CaSki cells)and HER-2/neu (performed in 184B5/HER, SKBR3 and BT474 cells) was assessed in cells after treatment with test compound for 24 hours. 5×10^6 cells were used for the treatment. Western blotting technique was used to assess the expression levels in cells treated with the test compound compared to vehicle alone. Western blotting was carried out as follows:
Cell lysates were prepared by treating cells with lysis buffer (150 mM NaCl, 100 mM Tris (pH 8.0), 1% Tween 20, 50 mM diethyldithiocarbamate, 1 mM EDTA, 1 mM phenylmethylsulfonyl fluoride, 10 μg/ml aprotinin, 10 μg/ml trypsin inhibitor and 10 μg/ml leupeptin). Lysates were sonicated for 20 s on ice and centrifuged at 10,000×g for 10 min to sediment the particulate material. The protein concentration of the supernatant was measured by the method of Lowry, O. H., et al., J. Biol. Chem. 193, 265-275 (195 1). SDS/PAGE was performed under reducing conditions on 10% polyacrylamide gels as described by Laemmli, U.K., Nature (Lond.) 227, 680-685 (1970). The resolved proteins were transferred onto nitrocellulose sheets as detailed by Towbin, H. et al., Proc. Natl. Acad. Sci. USA 76, 4350-4354 (1979). The nitrocellulose membrane was then incubated with anti-EGFR antiserum or anti-HER-2/neu antiserum. Secondary antibody to IgG conjugated to horseradish peroxidase was used. The various antisera were purchased from Santa Cruz Biotechnology, Inc., CA. The blots were probed with the Renaissance Western blot detection system according to the manufacturer's instructions (PerkinElmer Life Sciences, Boston, Mass.).

[5] = system: tcf/lef/β-catenin-mediated promoter activation; assay: TOPflash/FOPflash reporter assay for tcf/lef/β-catenin-mediated promoter activation (test (f)); format: cell-based, human; settings: positive in 184B5, 184B5/HER, HCA7, HCT116, SKBR3 and BT474 cells; 24 h
From the text: Tcf/lef/β-catenin is a transcription factor complex that has been implicated in the regulation of genes involved in carcinogenesis. Increased tcf/lef/β-catenin-mediated gene expression has been linked to pathogenesis of colon cancer. Tcf/lef/β-catenin is described in Barker, N., et al, Adv. Cancer Res. 77, 1-24 (2000), the whole of which is incorporated herein by reference.
Cells (cell lines were 184B5, 184B5/HER, HCA7, HCT116, SKBR3 and BT474) were split into 6 well dishes and the next day were transiently transfected using 8 μg of LipofectAMlNE as per the manufacturer's instructions (Invitrogen, CA). 1.8 μg/dish of the wildtype Tcf/Lef reporter plasmid TOP flash or the mutant plasmid FOP flash was transfected into the cells and 0.2 μg of pSV-β-galactosidase. FOPflash differs from TOPflash by the mutation of its Tcf binding sites and serves to differentiate Tef/-catenin-mediated signaling from background (Upstate Biotechnology, Inc.). Cells were incubated overnight and were treated for 24 hours with either vehicle or test compound. Luciferase activity in the extracts was measured as described above and was corrected for background by subtraction of FOP-FLASH values from corresponding TOP-FLASH values.

[6] = system: PTEN; assay: Western and Northern blotting for expression of PTEN (test (e)); format: cell-based, human; settings: positive in 184B5, 184B5/HER, HCA7, HCT116, SKBR3 and BT474 cells
Protocol: We turn now to criterion (e), i.e., at least 50% increase in expression of PTEN.
PTEN is a tumor suppressor that inhibits cell proliferation and induces programmed cell death. PTEN (also know as MMAC-1 or TEP-1) is described in Yamada, K. M., et al, Journal of Cell Science 114, 2375-2382, the whole of which is incorporated herein by reference.
Western blotting and Northern blotting techniques were used to evaluate the expression of PTEN. The expression of PTEN was evaluated in HCA7, HCT116, SKBR3, 184B5/HER, 184B5 and BT474 cells. 5×10^6cells were used to treat either vehicle alone or the test compound. The Western blotting analysis was performed as described above except anti-PTEN antibody was used to probe the blot. The antibody was obtained from Santa Cruz Biotechnology, Inc. CA. Northern blotting for PTEN was performed as described above and cDNA for PTEN as described in Tamura, M., et al, Science 5; 280 (5369):1614-1617 (1998), was used as a probe.

| Molecule | Test (a) activation of PPRE luciferase by at least 100% [1] | Test (d) at least 50% downregulation of expression of HPV16 oncoproteins E6 and E7 [2] | Test (c) at least 50% downregulation of expression of cyclin D1 [3] | Test (b) HER-2/neu: at least 50% decrease in level of or 50% downregulation of expression [4] | Test (f) at least 50% inhibition of tcf/lef/β-catenin-mediated promoter activation [5] | Test (e) at least 50% increase in expression of PTEN [6] |
| --- | --- | --- | --- | --- | --- | --- |
| 1-(p-chlorobenzoyl)-5-methoxy-2-methyl-1H-indole-3-octylacetamide [Indomethacin Analog 6] | + (A plus sign in the table indicates a positive result, that is meeting the test for each cell line as indicated above as providing a positive result) | + (A plus sign in the table indicates a positive result, that is meeting the test for each cell line as indicated above as providing a positive result) |  |  |  |  |
| COc1ccc2c(c1)c(CC(=O)NCCc1ccccc1)c(C)n2C(=O)c1ccc(Cl)cc1 [Indomethacin Analog 2, N-(2-phenylethyl)-indomethacin amide] | + (A plus sign in the table indicates a positive result, that is meeting the test for each cell line as indicated above as providing a positive result) | + (A plus sign in the table indicates a positive result, that is meeting the test for each cell line as indicated above as providing a positive result) | + (A plus sign in the table indicates a positive result, that is meeting the test for each cell line as indicated above as providing a positive result) | + (A plus sign in the table indicates a positive result, that is meeting the test for each cell line as indicated above as providing a positive result) |  |  |
| COc1ccc2c(c1)c(CC(=O)Nc1cccnc1)c(C)n2C(=O)c1ccc(Cl)cc1 [Indomethacin Analog 4, N-(3-pyridyl)-indomethacin amide] | + (A plus sign in the table indicates a positive result, that is meeting the test for each cell line as indicated above as providing a positive result) | + (A plus sign in the table indicates a positive result, that is meeting the test for each cell line as indicated above as providing a positive result) |  |  | + (A plus sign in the table indicates a positive result, that is meeting the test for each cell line as indicated above as providing a positive result) | + (A plus sign in the table indicates a positive result, that is meeting the test for each cell line as indicated above as providing a positive result) |
